From patent US20050288323A1, “Octahydro-indolizine and quinolizine and hexahydro-pyrrolizine” (priority 2000, published 2005)
pKi: −log10 of the molar value.

molecular target: T1, human histamine H3 receptor (Homo sapiens, UniProt Q9Y5N1); assay: [3H]-N-methylhistamine binding; settings: Table 1; [3H]-N-methylhistamine binding
T1 construct: One microgram of supercoiled H3 receptor cDNA was added to the cells and mixed; expressed in transfected cells; membranes
Procedure: Thus in the present invention receptor binding was determined using the human histamine H3 receptor (See Lovenberg et al Mol. Pharmacol. 1999, 1107). Screening using the human receptor is particularly important for the identification of new therapies for the treatment of human disease. Conventional binding assays for example are determined using rat synaptosomes (Garbarg et al J. Pharmacol. Exp. Ther. 1992, 263, 304), rat cortical membranes (West et al Mol. Pharmacol. 1990, 610), and guinea pig brain (Korte et al Biochem. Biophys. Res. Commun. 1990, 978). Only limited studies have been performed previously using human tissue but these allude to significant differences in the pharmacology of rodent and primate receptors (West et al Eur. J. Pharmacol. 1999, 233).
Transfection of Cells with Human Histamine Receptor
A 10 cm tissue culture dish with a confluent monolayer of SK-N-MC cells was split two days prior to transfection. Using sterile technique the media was removed and the cells were detached from the dish by the addition of trypsin. One fifth of the cells were then placed onto a new 10 cm dish. Cells were grown in a 37° C. incubator with 5% CO2 in Minimal Essential Media Eagle with 10% Fetal Bovine Serum. After two days cells were approximately 80% confluent. These were removed from the dish with trypsin and pelleted in a clinical centrifuge. The pellet was then re-suspended in 400 μL complete media and transferred to an electroporation cuvette with a 0.4 cm gap between the electrodes (Bio-Rad #165-2088). One microgram of supercoiled H3 receptor cDNA was added to the cells and mixed. The voltage for the electroporation was set at 0.25 kV, the capacitance was set at 960 μF. After electroporation the cells were diluted into 10 mL complete media and plated onto four 10 cm dishes. Because of the variability in the efficiency of electroporation, four different concentrations of cells were plated. The ratios used were; 1:20, 1:10, 1:5, with the remainder of the cells being added to the fourth dish. The cells were allowed to recover for 24 hours before adding the selection media (complete media with 600 μg/mL G418). After 10 days dishes were analyzed for surviving colonies of cells. Dishes with well isolated colonies were used. Cells from individual colonies were isolated and tested. SK-N-MC cells were used because they give efficient coupling for inhibition of adenylate cyclase. The clones that gave the most robust inhibition of adenylate cyclase in response to histamine were used for further study.
[^3H]-N-methylhistamine Binding
Cell pellets from histamine H3 receptor-expressing SK-N-MC cells were homogenized in 20 mM TrisHCl/0.5 mM EDTA. Supernatants from a 800 g spin were collected, recentrifuged at 30,000 g for 30 minutes. Pellets were re-homogenized in 50 mM Tris/5 mM EDTA (pH 7.4). Membranes were incubated with 0.8 nM [^3H]-N-methylhistamine plus/minus test compounds for 45 min at 25° C. and harvested by rapid filtration over GF/C glass fiber filters (pretreated with 0.3% polyethylenimine) followed by four washes with ice cold buffer. Filters were dried, added to 4 mL scintillation cocktail and then counted on a liquid scintillation counter. Non-specific binding was defined with 10 μM histamine. The pKi values were calculated based on a Kd of 800 pM and a ligand concentration ([L]) of 800 pM according to the formula: Ki=(IC50)/(1+([L]/(Kd))

T1 sequence (Q9Y5N1 whole entry): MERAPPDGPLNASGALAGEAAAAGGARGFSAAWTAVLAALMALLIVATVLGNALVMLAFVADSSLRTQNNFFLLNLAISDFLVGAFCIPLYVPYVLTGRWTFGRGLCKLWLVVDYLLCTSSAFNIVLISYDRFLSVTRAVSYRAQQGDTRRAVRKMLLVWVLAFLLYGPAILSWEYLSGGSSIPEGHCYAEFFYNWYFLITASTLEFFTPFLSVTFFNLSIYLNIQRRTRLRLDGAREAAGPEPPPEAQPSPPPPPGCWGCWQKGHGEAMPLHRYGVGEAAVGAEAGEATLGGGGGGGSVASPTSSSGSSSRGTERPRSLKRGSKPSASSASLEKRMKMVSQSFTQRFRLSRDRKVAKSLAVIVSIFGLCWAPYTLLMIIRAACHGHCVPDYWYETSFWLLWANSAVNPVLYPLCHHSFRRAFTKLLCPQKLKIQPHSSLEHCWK

pKi | SMILES
6.00 | c1ccc(-c2ccc([C@H]3CC[C@H]4CCCCN43)cc2)cc1 (racemic) [Example 3]
6.40 | c1ccc(Oc2ccc([C@H]3CC[C@H]4CCCCN43)cc2)cc1 (racemic) [Example 11]
6.22 | c1ccc(Oc2ccc([C@@H]3CC[C@H]4CCCCN43)cc2)cc1 (racemic) [Example 12]
8.05 | c1cc([C@H]2CC[C@H]3CCCCN32)ccc1OCCN1CCCCC1 (racemic) [Example 16, 3-[4-(2-Piperidin-1-yl-ethoxy)-phenyl]-octahydro-indolizine]
8.00 | CN(C)CCCOc1ccc([C@H]2CC[C@H]3CCCCN32)cc1 (racemic) [Example 17, Dimethyl-{3-[4-(octahydro-indolizin-3-yl)-phenoxy]-propyl}-amine]

SMILES | pKi
Brc1ccc([C@@H]2CC[C@H]3CCCCN32)cc1 (racemic) [Example 2] | 6.00

same assay, conditions: Table 2; [3H]-N-methylhistamine binding

SMILES | pKi
c1ccc(Sc2ccc([C@H]3CC[C@H]4CCCCN43)cc2)nc1 (racemic) [Example 28] | 6.69
c1cncc(Oc2ccc([C@H]3CC[C@H]4CCCCN43)cc2)c1 (racemic) [Example 29] | 6.82
c1ccc2[nH]c(Oc3ccc([C@H]4CC[C@H]5CCCCN54)cc3)nc2c1 (racemic) [Example 30] | 6.31
c1cnc(Sc2ccc([C@H]3CC[C@H]4CCCCN43)cc2)nc1 (racemic) [Example 32] | 6.19
O=c1[nH]c(Sc2ccc([C@H]3CC[C@H]4CCCCN43)cc2)nc2ccccc12 (racemic) [Example 33] | 6.79
N#Cc1ccc(Sc2ccc([C@H]3CC[C@H]4CCCCN43)cc2)cc1 (racemic) [Example 38] | 6.25

same assay, conditions: Table 3; [3H]-N-methylhistamine binding

pKi | SMILES
6.18 | Nc1cccc(-c2ccc([C@H]3CC[C@H]4CCCCN43)cc2)c1 (racemic) [Example 48]
6.30 | c1cc(-c2ccc([C@H]3CC[C@H]4CCCCN43)cc2)cs1 (racemic) [Example 49]
6.88 | O=Cc1ccsc1-c1ccc([C@H]2CC[C@H]3CCCCN32)cc1 (racemic) [Example 51]
6.66 | O=Cc1ccc(-c2ccc([C@H]3CC[C@H]4CCCCN43)cc2)cc1 (racemic) [Example 52]
6.38 | Fc1ccc(-c2ccc([C@H]3CC[C@H]4CCCCN43)cc2)cc1 (racemic) [Example 53]

same assay, conditions: [3H]-N-methylhistamine 0.8 nM, membranes of H3 receptor-expressing SK-N-MC cells

pKi | SMILES
9.70 | c1cc([C@H]2CC3CCCCN3C2)ccc1OCCCN1CCCCC1 (mixture of isomers) [Example 68, anti-2-(4-(3-Piperidinylpropoxy)phenyl)octahydroindolizine]
7.29 | CC(C)(C)OC(=O)N1CCCCC1CCOc1ccc([C@H]2CC[C@H]3CCCCN32)cc1 (mixture of isomers) [Example 85, trans-3-{4-[2,2′-(1-tert-Butylcarboxylatepiperidinyl)ethoxy]phenyl}-octahydroindolizine]
8.15 | CN1CCCCC1CCOc1ccc([C@H]2CC[C@H]3CCCCN32)cc1 (mixture of isomers) [Example 87, trans-3-{4-[2,2′-(N-Methylpiperidinyl)ethoxy]phenyl}octahydroindolizine]
7.15 | O=C(N1CCCCC1CCOc1ccc([C@H]2CC[C@H]3CCCCN32)cc1)C(F)(F)F (mixture of isomers) [Example 88, trans-3-{4-[2,2′-(N-Trifluoroacetylpiperidinyl)ethoxy]phenyl}octahydroindolizine]
7.33 | FC(F)(F)CN1CCCCC1CCOc1ccc([C@H]2CC[C@H]3CCCCN32)cc1 (mixture of isomers) [Example 89, trans-3-{4-[2,2′-(N-Trifluoroethylpiperidinyl)ethoxy]phenyl}octahydroindolizine]
7.10 | N=C(N)N1CCCCC1CCOc1ccc([C@H]2CC[C@H]3CCCCN32)cc1 (mixture of isomers) [Example 90, trans-3-{4-[2,2′-(N-Amidinopiperidinyl)ethoxy]phenyl}octahydroindolizine]
8.70 | CN1CCCC1CCOc1ccc([C@H]2CC[C@H]3CCCCN32)cc1 (mixture of isomers) [Example 91, trans-3-{4-[2,2′-(N-Methylpyrrolidinyl)ethoxy]phenyl}octahydroindolizine]
6.10 | OC(c1ccc(Cl)cc1)c1ccc(C2CCC3CCCCN32)cc1 (mixture of isomers) [Example 123, trans-3-{4-[(4-Chlorophenyl)methan-1-ol]phenyl}octahydroindolizine]
8.04 | c1cc([C@H]2CC[C@H]3CCCCN32)ccc1OCCN1CCCCC1 (racemic) [Example 16, 3-[4-(2-Piperidin-1-yl-ethoxy)-phenyl]-octahydro-indolizine]
8.02 | CN(C)CCCOc1ccc([C@H]2CC[C@H]3CCCCN32)cc1 (racemic) [Example 17, Dimethyl-{3-[4-(octahydro-indolizin-3-yl)-phenoxy]-propyl}-amine]
7.19 | c1ccc(N2CCN(Cc3ccc([C@H]4CC[C@H]5CCCCN54)cc3)CC2)cc1 (racemic) [Example 23, trans-3-[4-(N-Phenyl-1-piperazinylmethyl)phenyl]octahydroindolizine]
6.49 | O=[N+]([O-])c1ccc(Sc2ccc([C@@H]3CCC[C@@H]4CCCN43)cc2)cc1 (racemic) [Example 27, 5-[4-(4-Nitrophenylthio)phenyl]octahydroindolizine]
7.04 | c1ccc2c(Oc3ccc([C@H]4CC[C@H]5CCCCN54)cc3)ncnc2c1 (racemic) [Example 34, 4-[4-(Octahydro-indolizin-3-yl)-phenoxy]-quinazoline]
7.12 | Nc1ccc(Sc2ccc([C@@H]3CCC[C@@H]4CCCN43)cc2)cc1 (racemic) [Example 39, 5-(4-(4-Aminophenylthio)phenyl)octahydroindolizine]
7.21 | Nc1ccc(Sc2ccc([C@H]3CC[C@H]4CCCCN43)cc2)cc1 (racemic) [Example 40, tran-3-[4-(4-Aminophenylthio)phenyl]octahydroindolizine]
7.12 | CS(=O)(=O)Nc1ccc(Sc2ccc([C@@H]3CCC[C@@H]4CCCN43)cc2)cc1 (racemic) [Example 41, 5-[4-(4-Methanesulfonaminophenylthio)phenyl]octahydroindolizine]
7.68 | O=C(O)c1ccc(Sc2ccc([C@H]3CC[C@H]4CCCCN43)cc2)cc1 (racemic) [Example 42, tran-3-[4-(4-Carboxylicphenylthio)phenyl]octahydroindolizine]
7.40 | NC(=NO)c1ccc(Sc2ccc([C@H]3CC[C@H]4CCCCN43)cc2)cc1 (racemic) [Example 43, tran-3-[4-((4-Amidoxime)phenylthio)phenyl]octahydroindolizine]
8.05 | NCc1ccc(Sc2ccc([C@H]3CC[C@H]4CCCCN43)cc2)cc1 (racemic) [Example 44]
6.76 | c1csc(-c2ccc([C@H]3CC[C@H]4CCCCN43)cc2)c1 (racemic) [Example 50, 3-(4-Thiophen-2-yl-phenyl)-octahydro-indolizine]
7.12 | CN(C)CCNc1cccc([C@H]2CC[C@H]3CCCCN32)c1 (racemic) [Example 56, tran-3-[4-(3-(2-Dimethylaminoethyl)amino)phenyl]octahydroindolizine]

SMILES | pKi
Brc1ccc([C@H]2CC[C@H]3CCCCN32)cc1 (racemic) [Example 1, trans-3-(4-bromophenyl)octahydroindolizine] | 6.49
c1cc(Sc2ccc([C@@H]3CCC[C@@H]4CCCN43)cc2)ccn1 (racemic) [Example 26, 5-[4-(4-Pyridinylthio)phenyl]octahydroindolizine] | 7.46

same assay, conditions: [3H]-N-methylhistamine binding; value printed under example heading without unit

pKi | SMILES
5.83 | O/N=C\c1ccsc1-c1ccc([C@H]2CC[C@H]3CCCCN32)cc1 (racemic) [Example 54, tran-3-[4-(3-hydroxyiminomethylthienyl)phenyl]octahydroindolizine]
